Measured values: patent US7951779B2, “Method of protecting cells against damage and pharmaceutical composition comprising leumorphin” (Postech Academy-Industry Foundation, priority 2005, dated 2011)
Structures can show the parent of a compound that is named as a salt. Where two headings read alike, the source gives them in different places.

How the values were obtained:
[1] = system: AKT and ERK; type: cell-based, rat
[2] = system: PC12 cells; assay: MTT conversion assay of cell viability under serum deprivation; type: cell-based, rat
[3] = biological target: T1, KOR (Rattus norvegicus, UniProt P34975); type: cell-based
T1 construct: confirming that the KOR ligands we used have proper activities and that functional KOR is expressed in PC12 cells; endogenous in cells; host or cells: PC12 (rat pheochromocytoma)

[4] = system: PC12 cells; assay: TUNEL apoptosis assay in serum-deprived PC12 cells; type: cell-based, rat; details: leumorphin 1 μM, 24 hr
Experimental: TUNEL assay was performed according to the manufactures' instruction (Promega Corp.). Briefly, cells on coverslips were fixed with 4% paraformaldehyde for 30 min after stimulation, washed with PBS, permeabilized with 0.2% Triton X-100 for 5 min, rinsed with PBS, and were incubated with 25 μL TUNEL reaction mixture (containing enzyme, nucleotides, and fluorescein-dUTP) in a humidified atmosphere at 37° C. for 1 hr. To observe nuclear morphology, cells were counterstained with 2 μg/ml propidium iodide. Following these incubations, coverslips were rinsed with PBS three times and analyzed under conforcal microscopy We captured images which had at least 100 cells and used five different images from three independent experiments for statistic analysis.
It has been reported that in PC12 cells apoptosis can be induced by serum deprivation, which mimics the fluctuations in the supply of growth factors (Batistatou et al., 1993). […]
In FIG. 6A, Fragmentation of DNA in the nucleus was detected by a fluorescent TUNEL apoptosis assay. […] In FIG. 6D, caspase-3 activity was measured by using a specific fluorogenic substrate of caspase-3 (Ac-DEVD -AMC) as described in “Materials and Methods”.

[5] = system: caspase-3; assay: Caspase-3 enzymatic activity in PC12 cell lysates; type: cell-based, rat; details: 24 hr
Experimental: PC12 cell lysates were centrifuged at 1,000×g for 10 min. Equal amount of supernatant (20 μg protein) was diluted in buffer containing 100 mM Hepes, 10% sucrose, 5 mM dithiothreitol, […], and 0.1% CHAPS (pH 7.25), and was added to each well of a 96-well plate containing 50 μM DEVD-aminomethylcoumarin (AMC). After incubation at 37° C. for 1 hr, the cleaved free AMC was detected using a fluorospectrophotometer (excitation of 355 nm, emission of 460 nm).
(§1) In FIG. 6A, Fragmentation of DNA in the nucleus was detected by a fluorescent TUNEL apoptosis assay. TUNEL stainings are shown in a-c, PI stainings are shown in d-f, and the merged images are presented in g-i. […] Each bar represents a fold increase of TUNEL-positive population of cells after treatment as indicated in serum-deprived condition versus those in serum-growing condition. In FIG. 6C, in order to analyze DNA ploidy, cells were fixed with ethanol, and FACS analysis was performed as described in “Materials and Methods”. In FIG. 6D, caspase-3 activity was measured by using a specific fluorogenic substrate of caspase-3 (Ac-DEVD -AMC) as described in “Materials and Methods”.

[6] = system: EGFR; assay: EGFR tyrosine phosphorylation, immunoprecipitation and Western blot in PC12 cells; type: cell-based, rat; details: for effect on leumorphin-induced tyrosine phosphorylation of EGFR: preincubation 20 min: AG1478 1 μM, PP2 5 μM, naloxone or nor-BNI 1 μM, then leumorphin 1 μM 2 min
Experimental: Immunoprecipitation was performed as previously described (Daub et al., 1997). In brief, cells were washed with ice-cold PBS and lysed with lysis buffer (50 mM HEPES pH 7.5, 150 mM NaCl, 1% Triton X-100, 1 mM EDTA, 10% glycerol) containing protease inhibitors (0.5 mM PMSF, 1 μg/ml leupeptin and 5 μg/ml aprotinin) and phosphatase inhibitors (30 mM NaF, 1 mM Na3VO4 and 30 mM Na4O7P2). The cell lysates were incubated for 1 hr at 4° C. After centrifugation (12,000×g for 15 min), equal amounts of soluble extract were incubated for 4 hr, with 5 μg of anti-EGFR antibody and 30 μl of resin volume of immobilized protein G For gel electrophoresis, the precipitates were dissolved in Laemmli sample buffer.
FIGS. 5C and 5D, PC12 cells were stimulated with the indicated doses of leumorphin for 10 min (C) or with 1 μM of leumorphin for the indicated times (D). […] Cell lysates were subjected to Western blot analysis after immunoprecipitation with EGFR antibodies. Tyrosine-phosphorylated EGFRs were detected by immunoblotting with phosphotyrosine antibodies. The amounts of the precipitated EGFRs were monitored by reprobing the same blot with EGFR antibodies. […] In FIG. 5G, PC12 cells were preincubated with 1 μM AG1478 or 5 μM PP2 for 20 min and then stimulated with 1 μM leumorphin for 10 min. Phosphorylation of AKT and ERK was detected by Western blot analysis as in FIG. 4F. C-E,

[7] = system: AKT and ERK; assay: AKT and ERK phosphorylation in HEK-293 cells that do not express the KOR; type: cell-based; details: data not shown
[8] = system: PC12 cells; assay: DNA ploidy analysis (FACS, sub-Go/Gl) in serum-deprived PC12 cells; type: cell-based, rat; details: 24 hr; for effect on the anti-apoptotic effect of leumorphin (sub-Go/Gl): antagonist 1 μM with leumorphin 1 μM
Experimental: Cells were suspended in PBS containing 5 mM EDTA and fixed in 100% ethanol. RNase A (50 μg/ml) was added to the suspended cells, and the cells were incubated at room temperature for 30 min. Propidium iodide (2 μg/ml) was added before reading. DNA contents of the cells were analyzed using a FACScan flow cytometer (Becton Dickinson, Franklin Lakes, N.J.), which was also used to determine the percentage of cells in the different phases of the cell cycle.
as §1

[9] = system: PC12 cells; assay: Competition binding assay of 125I-labeled leumorphin in PC12 cells; design: species or system rat
Experimental: Ligand binding analysis was performed as previously described (Bae et al., 2004). Briefly, PC12 cells were seeded at a density of 4×10^5 cells/well into a 12-well plate and cultured overnight. After incubating the cells in blocking buffer (33 mM HEPES (pH 7.5) and 0.1% BSA in RPMI 1640) for 2 hr, 25 pM of ^125I-labeled leumorphin dissolved in binding buffer (PBS containing 0.1% BSA) was added to the cells in the absence or presence of unlabeled ligands and incubated for 3 hr at 4° C. The samples were then washed five times with ice-cold binding buffer, and 500 μl of 1 N NaOH was added to each well. After 10 min at room temperature, the lysates were collected and counted using a gamma counter.
We investigated the possibility that leumorphin might have another binding site(s), in addition to the binding site for the KOR in PC12 cells. That is, an inhibition of [^125I]leumorphin binding in PC12 cells was investigated. PC12 cells were treated with various concentrations of unlabeled leumorphin, (−)-U-50488 and nor-BNI in the presence of ^125I-labeled leumorphin (25 pM) for 3 hr at 4° C. Specifically bound ^125I-labeled leumorphin was measured as described in “Materials and Methods”. For this purpose, we performed competition binding assay of ^125I-labeled leumorphin with unlabeled-agonists, leumorphin and (−)-U-50488, and an antagonist, nor-BNI.

T1 sequence (P34975 whole entry): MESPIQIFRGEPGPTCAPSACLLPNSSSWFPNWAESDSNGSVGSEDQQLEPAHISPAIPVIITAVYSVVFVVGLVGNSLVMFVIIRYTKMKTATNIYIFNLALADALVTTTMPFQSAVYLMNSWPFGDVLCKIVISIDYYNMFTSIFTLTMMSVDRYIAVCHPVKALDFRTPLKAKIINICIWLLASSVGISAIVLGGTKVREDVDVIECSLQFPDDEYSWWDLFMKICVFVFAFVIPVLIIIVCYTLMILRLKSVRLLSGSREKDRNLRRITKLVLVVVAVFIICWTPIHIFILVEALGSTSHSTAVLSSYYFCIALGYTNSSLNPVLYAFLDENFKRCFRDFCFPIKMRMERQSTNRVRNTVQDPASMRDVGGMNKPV

In the case of “β-endorphin (YGGFMTSEKSQTPLVTLFKNAIIKNAYKKGE; Beta-endorphin; UniProt P01189 237-267, looked up) [an agonist of the ε-type receptor]”, the “phosphorylation of AKT and ERK” value [1] is reported as “neither AKT nor ERK was phosphorylated”.
For `O=c1cc(N2CCOCC2)oc2c(-c3ccccc3)cccc12` [LY294002, [2-(4-morpholinyl)-8-phenyl-4H-1-benzopyran-4-one]], the “effect of kinase inhibitor on leumorphin-induced enhancement of cell viability” value (“effect of kinase inhibitor” below) ([2]; inhibitor 5 μM (AG1478 1 μM) with leumorphin 1 μM, 24 hr) was “attenuated”.
For UFP-101, the “effect on leumorphin-induced phosphorylation of AKT and ERK” value [1] was “did not have any effect”.
With pertussis toxin [PTX] the “effect on leumorphin-induced phosphorylation of AKT and ERK” value [1] was “did not have any inhibitory effects”, the “effect on the phosphorylation level of AKT and ERK when given alone” value (“effect on the phosphorylation level” below) [1] was “did not have any effects” and the “effect on the inhibitory effect of leumorphin on forskolin-induced increase of cAMP content” value ([3]; naloxone or nor-BNI 1 μM, PTX 100 ng/ml 20 hr, leumorphin 1 μM) was “reversed”. For the same compound, the “effect on leumorphin-induced enhancement of cell viability” value (shortened to “effect on leumorphin-induced enhancement”) [2] was “unaffected”.
In the case of `Oc1ccc2c3c1O[C@H]1c4[nH]c5ccccc5c4C[C@@]4(O)[C@@H](C2)N(CC2CC2)CC[C@]314` [naltrindole], the “effect on leumorphin-induced enhancement” value [2] is reported as “failed to attenuate” and the “effect on leumorphin-induced increase in cell viability at higher concentration” value (“effect on leumorphin-induced increase” below) [2] is reported as “failed to attenuate”.
leumorphin was tested, and the “population of TUNEL-positive cells increased by serum deprivation” value [4] was “significantly reduced”, the “activity of caspase-3 elevated by serum-deprivation” value ([5]; leumorphin 1 μM) was “decreased” and the “phosphorylation of AKT and ERK” value [1] was “specifically induced phosphorylation of both AKT and ERK”. The “tyrosine phosphorylation of EGFR” value ([6]; indicated doses for 10 min, 1 μM for indicated times) was “induced tyrosine phosphorylation of EGFR in dose- and time-dependent manner”, the “effect on forskolin-induced increase of cAMP contents” value ([3]; agonist 1 μM, 10 min, Ro-20-1724 pretreatment) was “inhibitory effect” and the “phosphorylation of AKT and ERK in HEK-293 cells” value [7] was “specifically induced phosphorylation of AKT and ERK”. The “sub-Go/Gl area, indicative of the apoptotic population” value ([8]; leumorphin 1 μM, serum deprivation, 35.7±2.2% without leumorphin) was 25.8±1.8%, the “cell viability (MTT conversion, percentage of surviving cells)” value [2] was “specifically enhanced” and the “dose- and time-dependence of enhancement of cell viability” value [2] was “dose-(FIG. 1D) and a time-dependent (FIG. 1E) manner”. The “concentration up to which the inhibitory extent continued to increase” value [9] was 10 µM and the “replacement of labeled leumorphin” value [9] was “completely replaced”.
`Oc1ccc2c3c1O[C@H]1c4[nH]c5c(c4C[C@@]4(O)[C@@H](C2)N(CC2CC2)CC[C@]314)C[C@@]1(O)[C@H]2Cc3ccc(O)c4c3[C@@]1(CCN2CC1CC1)[C@H]5O4` [nor-BNI, nor-binaltorphimine dihydrochloride] was tested, and the “effect on the inhibitory effect of leumorphin on caspase activity” value ([5]; nor-BNI 1 μM with leumorphin 1 μM) was “not blocked”, the “effect on leumorphin-induced phosphorylation of AKT and ERK” value [1] was “Neither of the antagonists, naloxone and nor-BNI, inhibited” and the “effect on the phosphorylation level” value [1] was “did not have any effects”. For the same compound, the “effect on leumorphin-induced tyrosine phosphorylation of EGFR” value (“effect … of EGFR” for short) [6] was “neither nor-BNI nor naloxone exhibited any inhibitory effect”, the “effect on the inhibitory effect of leumorphin on forskolin-induced increase of cAMP content” value [3] was “reversed” and the “effect on the anti-apoptotic effect of leumorphin (sub-Go/Gl)” value [8] was “failed to block”. The “effect on leumorphin-induced enhancement” value [2] was “insensitive”, the “effect on leumorphin-induced increase” value [2] was “failed to attenuate” and the “concentration at which the inhibitory extent reached its maximum and was saturated” value ([9]; 25 pM 125I-labeled leumorphin, 3 hr, 4° C.) was 100 nM.
For `COc1cccc(-c2cc(=O)c3ccccc3o2)c1N` [PD98059, [2′-amino-3′-methoxyflavone], the “effect of kinase inhibitor” value [2] was “attenuated”.
With `CC(C)(C)n1nc(-c2ccc(Cl)cc2)c2c(N)ncnc21` [PP2] the “effect on leumorphin-induced phosphorylation of AKT and ERK” value [1] was “significantly inhibited”, the “effect … of EGFR” value [6] was “completely blocked to the basal level” and the “effect of kinase inhibitor” value [2] was “significantly inhibited”.
For “D-Phe-Cys-Tyr-D-Trp-Om-Thr-Pen-Thr-NH2 [CTOP]”, the “effect on leumorphin-induced enhancement” value [2] was “failed to attenuate” and the “effect on leumorphin-induced increase” value [2] was “failed to attenuate”.
With dynorphin the “phosphorylation of AKT and ERK” value [1] was “none of these effects were elicited” and the “cell viability (MTT conversion, percentage of surviving cells)” value [2] was “did not have any significant effect on cell viability”.
In the case of “β-neoendorphin (YGGFLRKYP; Beta-neoendorphin; UniProt P01213 175-183, looked up) [prodynorphin gene product, endogenous KOR ligand]”, the “phosphorylation of AKT and ERK” value [1] is reported as “none of these effects were elicited” and the “cell viability (MTT conversion, percentage of surviving cells)” value [2] is reported as “none of these effects were elicited”.
With `C=CCN1CC[C@]23c4c5ccc(O)c4O[C@H]2C(=O)CC[C@@]3(O)[C@H]1C5` [naloxone] the “effect on leumorphin-induced phosphorylation of AKT and ERK” value [1] was “Neither of the antagonists, naloxone and nor-BNI, inhibited”, the “effect on the phosphorylation level” value [1] was “did not have any effects” and the “effect … of EGFR” value [6] was “neither nor-BNI nor naloxone exhibited any inhibitory effect”. For the same compound, the “effect on the anti-apoptotic effect of leumorphin (sub-Go/Gl)” value [8] was “failed to block” and the “effect on leumorphin-induced enhancement” value [2] was “insensitive”.
For rimorphin, the “phosphorylation of AKT and ERK” value [1] was “none of these effects were elicited” and the “cell viability (MTT conversion, percentage of surviving cells)” value [2] was “none of these effects were elicited”.
With `CS/C(N)=C(C#N)/C(C#N)=C(\N)SC` [U0124] the “effect of kinase inhibitor” value [2] was “had no effect”.
`N#CC(=C(/N)Sc1ccccc1N)/C(C#N)=C(\N)Sc1ccccc1N` [U0126] was tested, and the “effect of kinase inhibitor” value [2] was “attenuated”.
